# In patent US8461305B2, “L-fucose α1→6 specific lectin” (J-Oil Mills, Inc., priority 2008, dated 2013):
# Assays:
# [1] = frontal affinity chromatography (FAC), association constant to PA sugar chains without L-fucose; format: binding
# Procedure: (§1) The following section will describe a method of calculating an association constant by frontal affinity chromatography (FAC). This method is based on the following principle. […] Then, the elution front end (front) is observed immediately. When there is an affinity with lectin, the elution of the sugar chain is delayed.
# (§2) The preparation of a lectin column used in the apparatus is performed in the method as described below. 1. Purified lectin is dissolved in 0.1 to 0.2M of NaHCO3 buffer solution (pH 8.3 to 8.5). 2. The lectin is immobilized, via a lectin primary amino group, a carrier such as NHS activated sepharose. 3. Then, the lectin is blocked by Tris buffer solution including primary amine or ethanolamine for example. 4. Lectin-sepharose is suspended in 10 mM Tris buffer, including 0.8% of NaCl (pH 7.4, TBS). Then, lectin immobilized resin is filled in a miniature column (φ2 mm×10 mm, 31.4 μl). 5. The miniature column in which the lectin immobilized resin is filled is protected by a holder and the lectin column is connected to an FAC automatic analysis apparatus (FAC-1, SHIMADZU CORPORATION).
# (§3) Then, the elution of the PA sugar chain from the column is detected by a fluorescence detector (excitation wavelength/fluorescence wavelength: 310 nm/380 nm).
# (§4) Based on the detection data, by using the elution front end (Vo) of the sugar chain (PA rhamnose) not interacting with lectin as a reference, the delay (V−Vo) of the elution front end (V) of a sugar chain interacting with lectin is calculated as an interaction strength. Then, based on the following FAC criteria expressions, the association constant (Ka) between the sugar chain and lectin is calculated based on V−Vo and Bt. If the interaction strength (V−Vo value) and the association constant are higher, a higher affinity is caused between lectin and an L-fucose α1→6 sugar chain.
# (§5) [In the formula, A means substance used for the elution, Ao means the initial concentration of the substance A, B means a immobilized ligand, V means the elution volume, Vo means the elution front end volume of the substance not interacting with the immobilized ligand B at all, Bt means an effective ligand amount, Kd means a dissociation constant (an inverse of the association constant)].
# (§6) Pyridylaminated (PA) sugar chains shown in FIG. 1 and FIG. 2 were used to frontal affinity chromatography (FAC) analysis. PA sugars were purchased from TAKARA BIO INC., SEIKAGAKU BIOBUSINESS CORPORATION, and Masuda Chemical Industries co., LTD. PA sugar were also obtained by pyridylaminating, by GlycoTAG®(TAKARA BIO INC.), an unlabeled sugar chain or a sugar chain obtained by subjecting a sugar chain to enzyme digestion for example.
# (§7) Lectin was dissolved in 0.2 M NaHCO3 buffer solution (pH 8.3) including 0.5 M NaCl and coupled to the NHS-activated sepharose (GE Healthcare Bioscience) by following the manufacturer's instructions. Then, lectin immobilized sepharose was suspended in 10 mM Tris buffer (pH 7.4, TBS) including […] and the resultant matter was filled in a miniature column (φ2 mm×10 mm, 31.4 μl).
# (§8) Frontal affinity chromatography was performed using FAC automatic analysis apparatus (FAC-1, SHIMADZU CORPORATION). In particular, the above-prepared lectin column was inserted to a stainless steel holder and the holder was connected to FAC-1 apparatus. The flow rate and the column temperature were maintained at 0.125 ml/min and 25 degrees C., respectively. After the miniature column was equilibrated by the TBS, an excessive volume (0.5 ml to 4 ml) of a PA sugar chain (3.75 nM or 7.5 nM) was continuously inputted to the column using an automatic sampling apparatus.
# (§9) The fluorescent strength of the eluate of the PA sugar (excitation wavelength of 310 nm and fluorescence wavelength of 380 nm) was monitored to measure the interaction strength [a difference of the front end eluate to the standard oligosaccharide (PA rhamnose): V−V0]. […]
# [2] = frontal affinity chromatography (FAC), association constant to PA sugar chains having α1→6 L-fucose; format: binding; conditions: 25 degrees C.
# Procedure: as §1, §2, §3, §4, §5, §6, §7, §8, §9
substance,measurement,setting,value
"Lepista sordida lectin [LSL, novel lectin purified from the mushroom Lepista sordida]",binding to sugar chain not having L-fucose,[1]; FAC,not detected at all
same,association constant Ka,"[1]; Sugar chain No. 001, sugar chain not having L-fucose",<1000 M⁻¹
same,association constant Ka,"[1]; Sugar chain No. 002, sugar chain not having L-fucose",<1000 M⁻¹
same,association constant Ka,"[1]; Sugar chain No. 003, sugar chain not having L-fucose",<1000 M⁻¹
same,association constant Ka,"[1]; Sugar chain No. 004, sugar chain not having L-fucose",<1000 M⁻¹
same,association constant Ka,"[1]; Sugar chain No. 005, sugar chain not having L-fucose",<1000 M⁻¹
same,association constant Ka,"[1]; Sugar chain No. 006, sugar chain not having L-fucose",<1000 M⁻¹
same,association constant Ka,"[1]; Sugar chain No. 007, sugar chain not having L-fucose",<1000 M⁻¹
same,association constant Ka,"[1]; Sugar chain No. 008, sugar chain not having L-fucose",<1000 M⁻¹
same,association constant Ka,"[1]; Sugar chain No. 009, sugar chain not having L-fucose",<1000 M⁻¹
same,association constant Ka,"[1]; Sugar chain No. 010, sugar chain not having L-fucose",<1000 M⁻¹
same,association constant Ka,"[1]; Sugar chain No. 011, sugar chain not having L-fucose",<1000 M⁻¹
same,association constant Ka,"[1]; Sugar chain No. 012, sugar chain not having L-fucose",<1000 M⁻¹
same,association constant Ka,"[1]; Sugar chain No. 013, sugar chain not having L-fucose",<1000 M⁻¹
same,association constant Ka,"[1]; Sugar chain No. 014, sugar chain not having L-fucose",<1000 M⁻¹
same,association constant Ka,"[1]; Sugar chain No. 101, sugar chain not having L-fucose",<1000 M⁻¹
same,association constant Ka,"[1]; Sugar chain No. 103, sugar chain not having L-fucose",<1000 M⁻¹
same,association constant Ka,"[1]; Sugar chain No. 104, sugar chain not having L-fucose",<1000 M⁻¹
same,association constant Ka,"[1]; Sugar chain No. 105, sugar chain not having L-fucose",<1000 M⁻¹
same,association constant Ka,"[1]; Sugar chain No. 107, sugar chain not having L-fucose",<1000 M⁻¹
same,association constant Ka,"[1]; Sugar chain No. 108, sugar chain not having L-fucose",<1000 M⁻¹
same,association constant Ka,"[1]; Sugar chain No. 301, sugar chain not having L-fucose",<1000 M⁻¹
same,association constant Ka,"[1]; Sugar chain No. 304, sugar chain not having L-fucose",<1000 M⁻¹
same,association constant Ka,"[1]; Sugar chain No. 305, sugar chain not having L-fucose",<1000 M⁻¹
same,association constant Ka,"[1]; Sugar chain No. 307, sugar chain not having L-fucose",<1000 M⁻¹
same,association constant Ka,"[1]; Sugar chain No. 308, sugar chain not having L-fucose",<1000 M⁻¹
same,association constant Ka,"[1]; Sugar chain No. 313, sugar chain not having L-fucose",<1000 M⁻¹
same,association constant Ka,"[1]; Sugar chain No. 314, sugar chain not having L-fucose",<1000 M⁻¹
same,association constant Ka,"[1]; Sugar chain No. 323, sugar chain not having L-fucose",<1000 M⁻¹
same,association constant Ka,"[1]; Sugar chain No. 501, sugar chain not having L-fucose",<1000 M⁻¹
same,association constant Ka,"[1]; Sugar chain No. 502, sugar chain not having L-fucose",<1000 M⁻¹
same,association constant Ka,"[1]; Sugar chain No. 503, sugar chain not having L-fucose",<1000 M⁻¹
same,association constant Ka,"[1]; Sugar chain No. 504, sugar chain not having L-fucose",<1000 M⁻¹
same,association constant Ka,"[1]; Sugar chain No. 701, sugar chain not having L-fucose",<1000 M⁻¹
same,association constant Ka,"[1]; Sugar chain No. 702, sugar chain not having L-fucose",<1000 M⁻¹
same,association constant Ka,"[1]; Sugar chain No. 703, sugar chain not having L-fucose",<1000 M⁻¹
same,association constant Ka,"[1]; Sugar chain No. 704, sugar chain not having L-fucose",<1000 M⁻¹
same,association constant Ka,"[1]; Sugar chain No. 705, sugar chain not having L-fucose",<1000 M⁻¹
same,association constant Ka,"[1]; Sugar chain No. 706, sugar chain not having L-fucose",<1000 M⁻¹
same,association constant Ka,"[1]; Sugar chain No. 707, sugar chain not having L-fucose",<1000 M⁻¹
same,association constant Ka,"[1]; Sugar chain No. 708, sugar chain not having L-fucose",<1000 M⁻¹
same,association constant Ka,"[1]; Sugar chain No. 709, sugar chain not having L-fucose",<1000 M⁻¹
same,association constant Ka,"[1]; Sugar chain No. 710, sugar chain not having L-fucose",<1000 M⁻¹
same,association constant Ka,"[1]; Sugar chain No. 711, sugar chain not having L-fucose",<1000 M⁻¹
same,association constant Ka,"[1]; Sugar chain No. 712, sugar chain not having L-fucose",<1000 M⁻¹
same,association constant Ka,"[1]; Sugar chain No. 713, sugar chain not having L-fucose",<1000 M⁻¹
same,association constant Ka,"[1]; Sugar chain No. 715, sugar chain not having L-fucose",<1000 M⁻¹
same,association constant Ka,"[1]; Sugar chain No. 716, sugar chain not having L-fucose",<1000 M⁻¹
same,association constant Ka,"[1]; Sugar chain No. 717, sugar chain not having L-fucose",<1000 M⁻¹
same,association constant Ka,"[1]; Sugar chain No. 724, sugar chain not having L-fucose",<1000 M⁻¹
same,association constant Ka,"[1]; Sugar chain No. 725, sugar chain not having L-fucose",<1000 M⁻¹
same,association constant Ka,"[1]; Sugar chain No. 728, sugar chain not having L-fucose",<1000 M⁻¹
same,association constant Ka,"[1]; Sugar chain No. 732, sugar chain not having L-fucose",<1000 M⁻¹
same,association constant Ka,"[1]; Sugar chain No. 733, sugar chain not having L-fucose",<1000 M⁻¹
same,association constant Ka,"[1]; Sugar chain No. 734, sugar chain not having L-fucose",<1000 M⁻¹
same,association constant Ka,"[1]; Sugar chain No. 735, sugar chain not having L-fucose",<1000 M⁻¹
same,association constant Ka,"[1]; Sugar chain No. 736, sugar chain not having L-fucose",<1000 M⁻¹
same,association constant Ka,"[1]; Sugar chain No. 737, sugar chain not having L-fucose",<1000 M⁻¹
same,association constant Ka,"[1]; Sugar chain No. 738, sugar chain not having L-fucose",<1000 M⁻¹
same,association constant Ka,"[1]; Sugar chain No. 901, sugar chain not having L-fucose",<1000 M⁻¹
same,association constant Ka,"[1]; Sugar chain No. 902, sugar chain not having L-fucose",<1000 M⁻¹
same,association constant Ka,"[1]; Sugar chain No. 903, sugar chain not having L-fucose",<1000 M⁻¹
same,association constant Ka,"[1]; Sugar chain No. 905, sugar chain not having L-fucose",<1000 M⁻¹
same,association constant Ka,"[1]; Sugar chain No. 907, sugar chain not having L-fucose",<1000 M⁻¹
same,association constant Ka,[2]; Sugar chain No. 015,190000 M⁻¹
same,association constant Ka,[2]; Sugar chain No. 201,230000 M⁻¹
same,association constant Ka,[2]; Sugar chain No. 202,230000 M⁻¹
same,association constant Ka,[2]; Sugar chain No. 203,200000 M⁻¹
same,association constant Ka,[2]; Sugar chain No. 401,220000 M⁻¹
same,association constant Ka,[2]; Sugar chain No. 402,150000 M⁻¹
same,association constant Ka,[2]; Sugar chain No. 403,220000 M⁻¹
same,association constant Ka,[2]; Sugar chain No. 404,260000 M⁻¹
same,association constant Ka,[2]; Sugar chain No. 405,220000 M⁻¹
same,association constant Ka,[2]; Sugar chain No. 406,160000 M⁻¹
same,association constant Ka,[2]; Sugar chain No. 410,160000 M⁻¹
same,association constant Ka,[2]; Sugar chain No. 418,160000 M⁻¹
same,association constant Ka,[2]; Sugar chain No. 602,130000 M⁻¹
